Reference: patent US20110060029A1, “METHOD OF TREATING CANCER BY MODULATING EPAC” (priority 2009, published 2011)
“Also recorded” adds a separate entry of the source.

Tests used:
[1] = test system: SK-Mel-2; test: Migration assay (Boyden chambers) in SK-Mel-2; assay type: cell-based, human; conditions: for cell migration: 50 μM agonist
Method: (§1) Cell Culture—SK-Mel-2 and SK-Mel-24 (ATCC) cell lines were cultured in Eagle's Minimum Essential Medium supplemented with 10% fetal bovine serum at 37° C./5% CO2. HEMA-LP human melanocytes (Cascade Biologics) were maintained in Medium 254 with Human Melanocyte Growth Supplement (Cascade Biologics).
(§2) Adenoviral Overexpression—Recombinant adenoviruses containing human LacZ, Epac1 or Epac2 were constructed (Adeno-X Expression System, Clontech). Human Epac1 and Epac2 cDNA were kindly provided by Dr. J. L Bos (University Medical Center, Utrecht, Netherlands). Adenovirus of PKA alpha subunit was purchased from Vector Biolabs. The corresponding encoding sequence was cloned in topShuttle2 (Clontech) to obtain a mammalian expression cassette, which was then excised and ligated into BD Adeno-X Viral DNA. The recombinant vector was introduced into human embryonic kidney cells (HEK293) to recover infectious adenovirus. Viruses were propagated in HEK293 cells, and purified by BD Adeno-X Virus Purification Kits. Viral titer was determined by Adeno-X Rapid Titer Kit (Clontech). As a control study, adenovirus vector harboring LacZ was used at the same MOI. Cells were infected with adenovirus for 24 hand subjected to each experiment. In some experiments (For HS production and NDST-1 expression, FIGS. 5B, 5C, 5D, 5E, 5F and 5G), cells were further incubated for 48 h in medium without adenovirus followed by each experiment.
(§3) Migration assay—Migration assay was performed using methods previously known in the art using the Boyden chambers (pore size 8 μm, BD Biosciences). The upper chamber's polycarbonate insert film parts were coated by 75 μl fibronectin (50 μg/ml in PBS, Biosciences). Cultured cells were detached and the number of the cells was adjusted to 1×10^3 cells/μl of media. One-hundred micro liter of the cell suspension was applied to the center of the upper chamber and then attached to the lower chamber. Thereafter, the cells were incubated in CO2 incubator at 37° C. for 3 h unless specified. After fixation with 10% formalin neutral solution, cells were stained with Diff-Quick kit (Dade Behring). After mechanical removing of the cells on the upper surface of the membrane with a cotton swab, cells that migrated onto the lower surface of the membrane were counted. Pictures were taken with a microscope followed by counting migrated cells with Image J software in randomly chosen 10 fields.
Transfection of siRNA—Epac1 siRNA (Ambion), syndecan-2 siRNA (Ambion) and NDST-1 siRNA (QIAGEN) were transfected into subconfluent SK-Mel-2 cells using Lipofectamine 2000 (Invitrogen). For Epac1, a pool of double-stranded siRNAs containing equal parts of the following antisense sequence was used: 5′-AUCACUGUAUACCGGUUCC-3′ (SEQ ID NO: 1). For syndecan-2, a pool of double-stranded siRNAs containing equal parts of the following antisense sequence was used: 5′-CUCUGGACUCUCUACAUCC-3′ (SEQ ID NO: 2). For NDST-1, a pool of double-stranded siRNAs containing equal parts of the following antisense sequence was used: 5′-UUUAUUAGCAGUUAGUUCG-3′ (SEQ ID NO: 3). The corresponding non-targeting siRNA Silencer negative Control #2 siRNA (AM4613, Ambion) was used as a negative control. Twenty-four hours later, the medium containing siRNA was changed to fresh medium and incubated for 72 h. When siRNA transfection was combined with adenoviral infection, siRNA transfection followed the adenoviral infection.

[2] = test system: syndecan-2 colocalization with lipid rafts; test: Immunocytochemical staining of syndecan-2 and lipid rafts in SK-Mel-2; assay type: cell-based, human; conditions: for colocalization of syndecan-2 with lipid rafts: SK-Mel-2, 50 μM 8-pMeOPT for 15 min; for Epac1-induced syndecan-2 colocalization with lipid rafts: SK-Mel-2 overexpressing Epac1, NCD 10 μM for 3 h, FIG. 3D
Method: (§4) Immunocytochemistry—Immunocytochemistry was performed using methods previously known in the art. SK-Mel-2 on glass coverslips were fixed, washed and permeabilized with 0.02% Triton-X followed by incubation with primary and secondary antibodies for 30 min at room temperature. Alexa Fluor 488- and 594-conjugated goat anti-rabbit or anti-mouse antibodies (Molecular Probes) were used. The pictures were taken with a digital camera operated on a Nikon Eclipse TE200 or a confocal microscope (Zeiss Axiovert 100M). For mounting media, Prolong-Gold antifade with DAPI (Molecular Probes) was used.

[3] = test system: SK-Mel-24; test: Migration assay (Boyden chambers) in SK-Mel-24; assay type: cell-based, human; conditions: FIG. 1A; for cell migration: 50 μM agonist
Method: as §1, §2
as §3, with “Thereafter, the cells were incubated in CO2 incubator at 37° C. for 3 h unless specified. After fixation with 10% formalin neutral solution, cells were stained with Diff-Quick kit (Dade Behring).” left out, “Pictures were taken with a microscope followed by counting migrated cells with Image J software in randomly chosen 10 fields.” left out

[4] = test system: Cloudman S91 melanoma cell line; test: Migration assay in Cloudman S91 melanoma cells; assay type: cell-based, mouse; conditions: 50 μM 8-pMeOPT, FIG. 6B
Method: as §3
Lung colonization assay—To examine the metastatic potential of melanoma cells, lung colonization assay was performed using methods known in the art. […] Two weeks after the injection, the number of metastatic colonies on the surface of the lungs were counted under a dissection microscope. […]

[5] = test system: HEMA-LP human melanocytes; test: Migration assay (Boyden chambers) in HEMA-LP melanocytes; assay type: cell-based; conditions: HEMA-LP melanocyte; 50 μM agonist; FIG. 1A
Method: as §1
as §2, with “As a control study, adenovirus vector harboring LacZ was used at the same MOI. Cells were infected with adenovirus for 24 hand subjected to each experiment. In some experiments (For HS production and NDST-1 expression, FIGS. 5B, 5C, 5D, 5E, 5F and 5G), cells were further incubated for 48 h in medium without adenovirus followed by each experiment.” left out
Migration assay—Migration assay was performed using methods previously known in the art using the Boyden chambers (pore size 8 μm, BD Biosciences). […] After mechanical removing of the cells on the upper surface of the membrane with a cotton swab, cells that migrated onto the lower surface of the membrane were counted. […]

[6] = test system: syndecan-2 in lipid rafts-rich fraction; test: Immunoblot for syndecan-2 in lipid rafts-rich fraction (sucrose density gradient) of SK-Mel-2; assay type: cell-based, human; conditions: SK-Mel-2 overexpressing Epac1; 10 μM NCD for 3 h; FIG. 3E
Method: Western Blotting—Western blot analysis was performed using methods previously known in the art. Cells were lysed and sonicated in lysis buffer containing 25 mM Tris-HCl (pH7.5), 150 mM NaCl, 5 mM MgCl2, 1% NP-40, 1 mM DTT, 5% glycerol, phosphatase inhibitor (Sigma), protease inhibitor cocktail (Sigma) and 1 mM NaF. Equal amounts of protein (20 μg) were subjected to SDS-PAGE. After protein separation by electrophoresis, samples were transferred to Millipore Immobilon-P membrane and immunoblotting with antibodies was performed. Signal intensities of the bands were quantified with Image J software (NIH). Sucrose density gradient centrifugation—Lipid rafts-enriched membrane fractions were prepared using methods previously known in the art. Briefly, SK-Mel-2 cells were homogenated in 2 ml of 500 mM sodium carbonate (pH 11.0) with protease inhibitors (1 μg/ml leupeptin, 0.1 mM PMSF and 50 U/ml egg white trypsin inhibitor) and lysed by sonication. The lysate was then adjusted to 45% sucrose by mixing with 2 ml of 90% sucrose prepared in MBS buffer (25 mM 2-Morpholinoethanesulfonic acid (MES), pH 6.5, […]) and placed at the bottom of 5% and 35% discontinuous sucrose gradient (in MBS buffer containing 100 mM sodium carbonate) for an overnight ultra-centrifugation (260,000 g). Fractions were removed sequentially from the top and designated as fractions 1 through 13. […]

[7] = test system: tubulin; test: Immunocytochemical staining with tubulin in SK-Mel-2; assay type: cell-based, human; conditions: SK-Mel-2 overexpressing Epac1; NCD 10 μM for 3 h; FIG. 3C
Method: as §4

[Na+].[O-][Cl+2]([O-])[O-] [sodium chlorate]
Epac-induced migration ([1]; sodium chlorate, data not shown): decreased Epac-induced migration

cyclodextrin [CXD]
Epac1 overexpression-induced migration ([1]; SK-Mel-2 overexpressing Epac1, 10 μg/ml CXD, FIG. 2C): inhibited; also recorded: decreased Epac1 overexpression-induced migration | basal migration ([1]; SK-Mel-2 overexpressing LacZ, 10 μg/ml CXD, assay 8 h, FIG. 2C): inhibited | Epac1-overexpression-induced colocalization of syndecan-2 with lipid rafts ([2]; SK-Mel-2 with Epac1 adenovirus, 10 μg/ml CXD, FIG. 2A): decreased Epac-induced syndecan-2 colocalization with lipid-rafts; also recorded: decreased Epac1-overexpression-induced colocalization of syndecan-2 with lipid rafts

COc1ccc(Sc2nc3c(N)ncnc3n2[C@@H]2O[C@@H]3COP(=O)(O)O[C@H]3[C@H]2OC)cc1 [8-pMeOPT, 8-pMeOPT-2-O-Me-cAMP]
cell migration, combination with overexpression of Epacs over Epac overexpression alone ([3]; 50 μM 8-pMeOPT): such increase was not observed | cell migration [3]: increased melanoma cell migration | migration [4]: increased migration | cell migration, combination with overexpression of Epacs over Epac overexpression alone ([1]; SK-Mel-2, 50 μM 8-pMeOPT, FIG. 1A): further increased cell migration | cell migration ([1]; SK-Mel-2, FIG. 1A): increased melanoma cell migration | colocalization of syndecan-2 with lipid rafts ([2]; FIG. 2A): increased colocalization of syndecan-2 with lipid rafts | colocalization of syndecan-2 with lipid rafts ([2]; FIG. 2A, listed as Epac agonist): increased co-localization of syndecan-2 with lipid rafts | cell migration [5]: not in a melanocyte cell line

COC(=O)Nc1nc2ccc(C(=O)c3cccs3)cc2[nH]1 [NCD, Nocodazole]
syndecan-2 expression in lipid raft-rich fraction [6]: decreased expression of sydecan-2 in the lipid rafts-rich fraction; also recorded: decreased syndecan-2 expression in lipid raft-rich fraction | Epac1-induced fine tubulin network formation [7]: network formation was inhibited | Epac1-induced migration ([1]; SK-Mel-2 overexpressing Epac1, NCD 10 μM, FIG. 3F): inhibited Epac-induced migration; also recorded: inhibited Epac1-induced migration | Epac1-induced syndecan-2 colocalization with lipid rafts [2]: decreased Epac1-induced syndecan-2 colocalization with lipid rafts | Epac1-induced syndecan-2 colocalization with lipid rafts ([2]; listed as Nocodazole): decreased the colocalization of syndecan-2 with lipid rafts

CCCC(=O)Nc1ncnc2c1ncn2[C@@H]1O[C@@H]2COP(=O)(O)O[C@H]2[C@H]1O [6-MB-cAMP, N6-Monobutyryladenosine-3′,5′-cyclic monophosphate]
cell migration [3]: did not increase cell migration; also recorded: neither 6-MB-cAMP nor PKA overexpression, increased melanoma cell migration | cell migration ([1]; SK-Mel-2, FIG. 1A): did not increase cell migration; also recorded: neither 6-MB-cAMP nor PKA overexpression, increased melanoma cell migration | cell migration [5]: did not increase cell migration
